# Source: patent publication US20240034752A1, “ARTIFICIAL SHORT INTERFERING PEPTIDE FOR THE PHOSPHORYLATION SUBSTRATE OF DAPK1 AND ITS PHARMACEUTICAL APPLICATIONS” (priority 2021, published 2024)
# Key:
# [1] = test system: rat primary cortical neurons; assay: Oxygen-glucose deprivation (OGD)/reperfusion in primary cortical neuronal cultures, MTT assay; assay type: cell-based, Sprague Dawley rat
# Experimental: (§1) To induce OGD, EBSS containing 20 mM pH7.2 Sodium dithionite (Na2S2O4) solution with test agents were transiently exposed for 1.5 hrs, afterwards, for reperfusion, OGD culture medium was replaced with normal neurobasal media. The culture cells were further incubated for 20 hours, and cell cytotoxicity was assessed using the MTT assay. Non-OGD treated cell culture was as a control taken as 100% viability, Cell Death rate (%)=100%×(Control OD−treatment OD)/Control OD. Data were shown as mean±SEM, (n=3) * p<0.05, One-Way ANOVA followed by Multiple Comparisons versus OGD CTRL Group (Bonferroni t-test).
# as §1, with “peptides” for “agents”, “show” for “shown”, “(n=3)) ** p<0.01, *** p<0.005;” for “(n=3) * p<0.05,”
# Primary cultures of mixed cortical cell cultures containing both neurons and glia were prepared from embryonic day 15-18 Sprague Dawley rat as described previously [Wenxiang Fan, 50 of 59 Xiang Li, Liangliang Huang, Shucheng He, Zhicheng Xie, Yuxin Fu, Weirong Fang, Yunman Li S-oxiracetam ameliorates ischemic stroke induced neuronal apoptosis through up-regulating α7nAChR and PI3K/Akt/GSK3β signal pathway in rats Neurochemistry International Volume 115, May 2018, Pages 50-60 https://doi.org/10.1016/j.Neuint.2018.01.008]. […]
# Oxygen glucose deprivation were performed according to a previously method [J. Huang, N. D. Kodithuwakku, W. He. […] Finally, Cell viability was determined by MTT assay (same as 1.2) […]
# HT22 cells = assay: Glutamate insult test in HT22 cells, MTT assay; assay type: cell-based, Mouse; conditions: for reduced HT22 cell death: 400 nM peptide; for reduced HT22 cell death / reduced cell death: 6 mM glutamate, 24 h, MTT
# Experimental: The group with 0 nM RvTAT-PKD-S205 was as a control. Cell Death rate (%)=100%×(Control OD−treatment OD)/Control OD. Data were shown as mean t SEM, (n=3), *p<0.05, **p<0.01, One-Way ANOVA followed by Multiple Comparisons versus the group with 0 nM RvTAT-PKD-S205 (Bonferroni t-test).
# After 24 hours following glutamate exposure, cell cytotoxicity was determined by the MTT assay. HT22 cells, without the presence of the test agents in culture medium, were exposed separately 42 of 59 to 6 mM Glutamate salt as a control. Cell Death (%)=100%×(Control OD−treatment OD)/Control OD. Data were shown as mean±SEM, (n=3) * p<0.05, **p<0.01, One-Way ANOVA followed by Multiple Comparisons versus Glutamate Control Group (Bonferroni t-test).
# The cells of HT-22 Mouse Hippocampal neuronal cell line were cultured and maintained in DMEM 10% fetal bovine serum, 100 U/ml penicillin and 100 μg/ml streptomycin. Cells were maintained at a temperature of 37° C. in 5% CO2/95% air. During agent's treatments and experimentation, HT-22 cells were seeded in 96-well plates by 6×10^3 cells/well and cultured at 37° C. in a CO2 incubator for 24 h. Afterwards, For neuroprotection assays, HT22 cells were exposure to 6 mM glutamate by removing media and adding Neurobasal Medium with present of 2% B27 (B27 (B-27™ Plus Supplement (50×)) and various concentrations of test agents for further 24 hours at 37° C. in the CO2 incubator. Cell viability was assessed by MTT assay.
# Cell viability was quantitatively measured by 3-[4,5-dimethylthiazol-2-yl]-2,5-diphenyltetrazolium bromide (MTT) assay.
# Water-soluble yellow dye MTT reagent (final concentration 0.5 mg/ml) was added to each well and incubated at 37° C. After 4 hours, the incubate medium was removed and 100 μl of Dimethyl Sulfoxide (DMSO) was added. After 30 min extraction at room temperature, the absorbance of the formazan solution is determined spectrophotometrically at 570 nm. MTT absorbance data were converted to reflect proportional cell viability relative to both the untreated and treated controls, wherein the untreated control was considered as 100% viability.
# [2] = test system: transient middle cerebral artery occlusion/reperfusion (MCAO/R) stroke model; assay: Rotarod motor performance after MCAO/R; assay type: in vivo, Sprague-Dawley rats; conditions: 3.5 mg/kg i.v. 4.5 h after ischemia onset; for Holding time on rod increase: vs untreated control group
# [3] = test system: transient bilateral common carotid artery occlusion (tBCCAO/R) global cerebral ischemia model; assay: Y-maze passive avoidance after tBCCAO/R; assay type: in vivo, C57BL/6 mice; conditions: 7 mg/kg i.v. 3 h after tBCCAO; tested 24 h after tBCCAO/R; vs untreated group
# Experimental: (§2) C57BL/6 mice were subjected to two times 20 minutes bilateral common carotid arteries occlusion followed by reperfusion (tBCCAO/R) and treated with 7 mg/2 ml/kg RvTAT-PKD-S205 or some volume Saline via tail vein administered after 3 hours of the tBCCAO. After 24 hours of reperfusion, the ischemic mice were estimated by the Y maze Passive Avoidance task, as well as the MDA content in hippocampus and brain water content. […] FIG. 6C show the MDA content in hippocampus collected from Ischemic or sham mice after 24 hours of reperfusion subject to MDA ELISA assay. […] Data were shown as mean±SEM, (n=11 in each group), *p<0.05, **p<0.01 compared to Saline control group using Student t test. Animal treatments were randomized, and all procedures were performed blinded to treatment. […]
# The day before surgery, the researchers train the mice to avoid electric shocks caused by light sources, which can minimize the effects of odor. […] Learning and memory skill was quantified by Y maze passive avoidance task 24 hours after tBCCAO/R modeling (FIG. 6A).
# After 24 hrs BCCAO/R mice were acclimatized to the testing room before conducting the Y-maze and allowed to familiarize themselves with the maze. […] A current stimulation of pre-determined intensity (0.05-0.8 mA) will be administered. […] The number to escape to the safe zone was recorded; any escapes to non-safe zones were regarded as erroneous. […]
# [4] = test system: MDA content in hippocampus; assay: Malondialdehyde (MDA) assay after tBCCAO/R; assay type: in vivo, C57BL/6 mice; conditions: 7 mg/kg i.v. 3 h after tBCCAO; 24 h reperfusion; vs saline
# Experimental: as §2
# MDA is one of the important products of lipid peroxidation and the extent of lipid oxidation was determined by measuring MDA levels. […] The supernatants were collected after the lysates were centrifuged at 3,500 r/min for 10 min at 4° C., and MDA content was determined using MDA TCA kit (Nanjing Jiancheng Bioengineering Institute, Nanjing, China) following the manufacturer's protocol. The results were evaluated from the standard curve and calculated as nM/mg of tissue.
# [5] = test system: transient bilateral common carotid artery occlusion (tBCCAO/R) global cerebral ischemia model; assay: Brain edema (brain water content) after tBCCAO/R; assay type: in vivo, C57BL/6 mice; conditions: 7 mg/kg i.v. 3 h after tBCCAO; 24 h reperfusion; vs saline controls
# Experimental: C57BL/6 mice were subjected to two times 20 minutes bilateral common carotid arteries occlusion followed by reperfusion (tBCCAO/R) and treated with 7 mg/2 ml/kg RvTAT-PKD-S205 or some volume Saline via tail vein administered after 3 hours of the tBCCAO. After 24 hours of reperfusion, the ischemic mice were estimated by the Y maze Passive Avoidance task, as well as the MDA content in hippocampus and brain water content. […] FIG. 6C show the MDA content in hippocampus collected from Ischemic or sham mice after 24 hours of reperfusion subject to MDA ELISA assay. […] Data were shown as mean±SEM, (n=11 in each group), *p<0.05, **p<0.01 compared to Saline control group using Student t test. Animal treatments were randomized, and all procedures were performed blinded to treatment.
# Modeling: C57 […] male mice weighing 20-30 g (6-7 weeks old) were allowed free access to food and water and were housed under constant environmental conditions (a 12/12 h light/dark cycle). […]
# Mice were assessed for brain edema by the dry/wet weight measurement after 24 hrs BCCAO/R. Wet weight was determined immediately after dissection of the brain, then the tissue was dried at 55° C. to a constant weight over 24 hours to determine the dry weight. The percentage of brain water content was calculated as (wet weight−dry weight)/wet weight*100.
# [6] = test system: transient middle cerebral artery occlusion/reperfusion (MCAO/R) stroke model; assay: Transient MCAO/R stroke model, infarct volume by TTC staining; assay type: in vivo, Sprague-Dawley rats; conditions: 3.5 mg/kg single i.v. bolus 4.5 h after ischemia onset; 90 min MCAO; TTC about 24 h; vs saline controls
sequence,measurement,setting,value
RRRQRRKKRGKKRPQRRYSNVP [RvTAT-opMLC-S20],survival of neurons,[1]; OGD model,did not significantly increase
same,reduced HT22 cell death,HT22 cells,~25%
"RRRQRRKKRGNLSRRLKVTGDL [RvTAT-BECN1-T199, Fusion peptide: RvTAT at N-terminus of BECN1-T199]",reduced HT22 cell death,HT22 cells,~21%
"RRRQRRKKRGQIAKRRRLSSLRA [RvTAT-rSP6-S235, Fusion peptide: RvTAT at N-terminus of rSP6-S235]",reduced HT22 cell death,HT22 cells,about 29%
"RRRQRRKKRGRKPERRRLKTTRL [RvTAT-ZIPK-T299, Fusion peptide: RvTAT at N-terminus of ZIPK-T299]",reducing cortical neuronal death,"[1]; 1000 nM peptide added 30 min before OGD, 20 h reperfusion, MTT",12%
same,reduced HT22 cell death,HT22 cells,about 33%
"RRRQRRKKRGSGVRRRRLSNVSL [RvTAT-PKD-S205, Fusion peptide: RvTAT cell penetrating peptide at N-terminus of PKD-S205]","mean holding time, treated vs untreated",[2]; 3 days after tMCAO,no significant differences
same,Holding time on rod increase,[2]; 5 days after tMCAO,70%
same,Holding time on rod increase,[2]; 7 days after tMCAO,75%
same,reducing neuronal death,"[1]; 300 nM peptide added 30 min before OGD, 20 h reperfusion, MTT",12%
same,increase in memory index (Y-maze passive avoidance),[3],30%
same,decrease in MDA level,[4],55%
same,brain water content reduced,[5],8.5%
same,reduced the volume of total cerebral infarction,[6],approximately 60%
same,reduced cell death,HT22 cells; 100 nM peptide,11%
same,reduced cell death,HT22 cells; 200 nM peptide,22%
same,reduced cell death,HT22 cells; 1600 nM peptide,24%
same,most effective concentration,HT22 cells; glutamate induced apoptosis model,400 nM
